Columns and labels:
[1] = biological target: T1, OAT3 (Homo sapiens, UniProt Q8TCC7); assay: Transporter inhibition, HEK293 cells; assay type: in vitro ADME
T1 construct: expressed in transfected cells; host or cells: HEK293
T1 sequence (Q8TCC7 1-542): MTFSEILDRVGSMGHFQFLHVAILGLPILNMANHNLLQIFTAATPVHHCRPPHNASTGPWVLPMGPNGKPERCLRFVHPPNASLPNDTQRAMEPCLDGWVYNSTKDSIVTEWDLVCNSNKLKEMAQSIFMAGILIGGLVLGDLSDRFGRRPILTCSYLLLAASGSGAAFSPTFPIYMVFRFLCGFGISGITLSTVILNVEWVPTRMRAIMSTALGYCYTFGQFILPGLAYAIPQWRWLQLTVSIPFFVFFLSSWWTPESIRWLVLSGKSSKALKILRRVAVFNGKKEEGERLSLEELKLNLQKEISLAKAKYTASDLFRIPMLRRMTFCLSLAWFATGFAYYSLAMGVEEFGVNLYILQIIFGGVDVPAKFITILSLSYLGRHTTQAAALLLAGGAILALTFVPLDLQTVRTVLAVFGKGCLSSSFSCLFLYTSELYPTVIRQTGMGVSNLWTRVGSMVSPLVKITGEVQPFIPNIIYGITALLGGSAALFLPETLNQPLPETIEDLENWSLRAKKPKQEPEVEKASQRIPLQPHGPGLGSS

[2] = biological target: T2, OCT2 (Homo sapiens, UniProt O15244); assay: Transporter inhibition, HEK293 cells; assay type: in vitro ADME; details: [14C]-metformin (10 μM), 1 and 10 μM tested
T2 construct: expressed in transfected cells; host or cells: HEK293
T2 sequence (O15244 1-555): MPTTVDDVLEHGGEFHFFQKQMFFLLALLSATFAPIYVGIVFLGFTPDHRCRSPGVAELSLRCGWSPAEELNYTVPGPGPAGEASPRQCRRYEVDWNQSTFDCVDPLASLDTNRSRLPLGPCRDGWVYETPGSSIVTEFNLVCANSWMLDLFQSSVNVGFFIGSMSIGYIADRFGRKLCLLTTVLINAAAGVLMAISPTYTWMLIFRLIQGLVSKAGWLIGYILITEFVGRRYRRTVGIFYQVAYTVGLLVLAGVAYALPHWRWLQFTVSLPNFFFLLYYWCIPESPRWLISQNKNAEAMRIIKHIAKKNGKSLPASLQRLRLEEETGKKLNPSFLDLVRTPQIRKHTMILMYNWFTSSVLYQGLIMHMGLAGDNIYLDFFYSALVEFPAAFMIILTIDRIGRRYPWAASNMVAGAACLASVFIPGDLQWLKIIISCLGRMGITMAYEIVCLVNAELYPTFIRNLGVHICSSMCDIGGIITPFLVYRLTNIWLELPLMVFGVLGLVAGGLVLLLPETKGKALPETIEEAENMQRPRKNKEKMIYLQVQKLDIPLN

[3] = biological target: T3, OATP1B3 (Homo sapiens, UniProt Q9NPD5); assay: Transporter substrate evaluation, HEK293 cells; assay type: in vitro ADME; details: 1 and 10 μM
T3 construct: expressed in transfected cells; host or cells: HEK293
T3 sequence (Q9NPD5 1-702): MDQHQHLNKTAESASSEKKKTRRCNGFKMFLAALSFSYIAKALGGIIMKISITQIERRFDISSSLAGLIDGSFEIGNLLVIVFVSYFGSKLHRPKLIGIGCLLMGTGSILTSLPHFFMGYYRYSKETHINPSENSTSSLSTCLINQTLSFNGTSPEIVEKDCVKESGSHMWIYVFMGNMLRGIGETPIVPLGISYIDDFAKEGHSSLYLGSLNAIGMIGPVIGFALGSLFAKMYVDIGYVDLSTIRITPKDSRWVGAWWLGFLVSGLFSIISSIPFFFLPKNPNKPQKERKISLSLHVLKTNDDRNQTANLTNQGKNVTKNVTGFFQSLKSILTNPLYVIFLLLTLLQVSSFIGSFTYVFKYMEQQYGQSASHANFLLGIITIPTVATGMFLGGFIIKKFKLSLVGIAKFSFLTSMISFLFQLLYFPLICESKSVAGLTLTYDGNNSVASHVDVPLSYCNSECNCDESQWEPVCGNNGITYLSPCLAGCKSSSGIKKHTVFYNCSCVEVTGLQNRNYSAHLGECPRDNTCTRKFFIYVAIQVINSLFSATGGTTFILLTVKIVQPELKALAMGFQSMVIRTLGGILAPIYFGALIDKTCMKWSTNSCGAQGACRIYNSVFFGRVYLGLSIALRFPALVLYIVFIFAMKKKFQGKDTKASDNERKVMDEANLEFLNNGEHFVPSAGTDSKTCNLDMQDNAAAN

[4] = In vitro metabolism studies and human mass balance clinical study; assay type: in vivo; details: oxidative (CYP2C8, CYP2C9) and conjugation (UGT1A7, minor UGT1A1, UGT1A4) pathways
From the text: Compound 1 is eliminated from the systemic circulation mainly due to metabolism and biliary/fecal excretion.

[5] = biological target: P-gp (Homo sapiens, UniProt P08183)
[6] = biological target: T4, OATP1B1 (Homo sapiens, UniProt Q9Y6L6)
T4 sequence (Q9Y6L6 1-691): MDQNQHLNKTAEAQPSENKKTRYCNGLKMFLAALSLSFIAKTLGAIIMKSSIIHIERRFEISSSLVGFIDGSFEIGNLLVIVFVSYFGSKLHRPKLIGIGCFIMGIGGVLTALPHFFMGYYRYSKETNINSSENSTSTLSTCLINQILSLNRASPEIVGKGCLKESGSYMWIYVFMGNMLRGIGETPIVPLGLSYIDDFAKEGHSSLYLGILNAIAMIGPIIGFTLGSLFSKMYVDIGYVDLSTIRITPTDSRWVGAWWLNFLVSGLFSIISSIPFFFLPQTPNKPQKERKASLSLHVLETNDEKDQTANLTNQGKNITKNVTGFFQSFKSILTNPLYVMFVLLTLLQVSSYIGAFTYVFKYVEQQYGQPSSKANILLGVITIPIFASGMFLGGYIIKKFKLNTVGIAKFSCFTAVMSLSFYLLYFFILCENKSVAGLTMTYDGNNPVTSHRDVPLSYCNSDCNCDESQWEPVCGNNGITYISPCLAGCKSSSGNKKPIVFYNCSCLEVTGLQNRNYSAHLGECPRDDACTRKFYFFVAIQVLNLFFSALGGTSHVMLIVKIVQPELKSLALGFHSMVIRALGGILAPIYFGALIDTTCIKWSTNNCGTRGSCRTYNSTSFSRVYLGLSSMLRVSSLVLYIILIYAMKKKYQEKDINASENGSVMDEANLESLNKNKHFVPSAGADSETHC

[7] = male Sprague-Dawley rats; cited from earlier work

P-gp, sequence (P08183 whole entry): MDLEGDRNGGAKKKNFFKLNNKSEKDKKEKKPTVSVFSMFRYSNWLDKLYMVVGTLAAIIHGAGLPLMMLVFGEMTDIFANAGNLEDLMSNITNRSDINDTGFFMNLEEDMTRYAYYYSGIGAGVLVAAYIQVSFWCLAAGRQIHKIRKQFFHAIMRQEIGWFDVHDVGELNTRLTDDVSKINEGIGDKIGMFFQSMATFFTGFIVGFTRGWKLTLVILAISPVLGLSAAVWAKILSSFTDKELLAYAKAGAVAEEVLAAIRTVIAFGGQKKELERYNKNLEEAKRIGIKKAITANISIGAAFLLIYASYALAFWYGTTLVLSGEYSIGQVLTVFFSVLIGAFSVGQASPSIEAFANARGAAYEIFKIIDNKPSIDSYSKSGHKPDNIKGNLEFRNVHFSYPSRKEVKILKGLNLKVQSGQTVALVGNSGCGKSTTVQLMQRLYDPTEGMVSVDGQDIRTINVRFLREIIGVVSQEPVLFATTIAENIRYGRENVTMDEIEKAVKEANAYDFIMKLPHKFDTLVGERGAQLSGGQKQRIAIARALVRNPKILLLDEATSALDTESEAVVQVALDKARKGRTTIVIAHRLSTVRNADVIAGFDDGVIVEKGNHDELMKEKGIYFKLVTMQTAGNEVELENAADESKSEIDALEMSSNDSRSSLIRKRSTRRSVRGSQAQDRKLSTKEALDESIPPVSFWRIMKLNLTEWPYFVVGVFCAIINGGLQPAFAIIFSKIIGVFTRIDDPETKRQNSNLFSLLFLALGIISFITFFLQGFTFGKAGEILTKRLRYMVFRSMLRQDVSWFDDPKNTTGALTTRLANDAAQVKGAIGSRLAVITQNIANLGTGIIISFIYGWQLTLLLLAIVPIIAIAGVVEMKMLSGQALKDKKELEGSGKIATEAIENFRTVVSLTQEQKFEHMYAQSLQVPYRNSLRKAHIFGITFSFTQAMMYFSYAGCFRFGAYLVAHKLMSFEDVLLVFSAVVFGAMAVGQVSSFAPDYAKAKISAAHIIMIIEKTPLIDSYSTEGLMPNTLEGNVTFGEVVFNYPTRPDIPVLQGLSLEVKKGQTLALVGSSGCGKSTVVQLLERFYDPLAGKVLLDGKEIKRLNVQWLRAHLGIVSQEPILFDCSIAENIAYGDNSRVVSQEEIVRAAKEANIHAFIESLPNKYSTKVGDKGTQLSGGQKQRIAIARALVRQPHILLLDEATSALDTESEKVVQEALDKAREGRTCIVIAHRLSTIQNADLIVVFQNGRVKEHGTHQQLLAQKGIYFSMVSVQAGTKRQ

Compound: O=C(O)C[C@H]1CCc2c1[nH]c1ccc(OCc3ccc(C4CCCC4)c(C(F)(F)F)c3)cc21 [Compound 1, (R)-2-(7-(4-cyclopentyl-3-(trifluoromethyl)benzyloxy)-1,2,3,4-tetrahydrocyclopenta[b]indol-3-yl)acetic acid]
- Reduction of uptake rate of estrone-3-sulfate into OAT3-expressing cells (inhibition) ([1]; 1 and 10 μM): less than 50%
- IC50 ([1]; HEK293 cells, [3H]-estrone-3-sulfate (50 nM), 1 and 10 μM tested): > 10 µM
- IC50 [2]: > 10 µM
- Potential substrate of OATP1B3 ([3]; HEK293 cells): not a substrate of OATP1B3 and not a substrate and No
- Uptake ratio into OATP1B3-expressing cells ([3]; absence and presence of rifampin): less than two
- Extent of metabolism (overall) [4]: > 25%
- IC50 [5]: ~100 µM
- IC50 [6]: ~10 µM
- Bradycardia [7]: no or substantially no bradycardia

Source: patent US20210228545A1, “METHODS OF TREATING CONDITIONS RELATED TO THE S1P1 RECEPTOR” (Arena Pharmaceuticals, Inc., priority 2018, published 2021)
